One experiment has as its system HCT-116. Description: Growth inhibition of human HCT-116 cells. In kind it is functional. The conditions noted are these: pooled result: one value given for 3 cell lines, strains, targets or settings.
Experiment [1] has as its target T1, Ribonucleoside-diphosphate reductase subunit M2 (Homo sapiens, UniProt P31350).
T1 sequence (P31350 whole entry): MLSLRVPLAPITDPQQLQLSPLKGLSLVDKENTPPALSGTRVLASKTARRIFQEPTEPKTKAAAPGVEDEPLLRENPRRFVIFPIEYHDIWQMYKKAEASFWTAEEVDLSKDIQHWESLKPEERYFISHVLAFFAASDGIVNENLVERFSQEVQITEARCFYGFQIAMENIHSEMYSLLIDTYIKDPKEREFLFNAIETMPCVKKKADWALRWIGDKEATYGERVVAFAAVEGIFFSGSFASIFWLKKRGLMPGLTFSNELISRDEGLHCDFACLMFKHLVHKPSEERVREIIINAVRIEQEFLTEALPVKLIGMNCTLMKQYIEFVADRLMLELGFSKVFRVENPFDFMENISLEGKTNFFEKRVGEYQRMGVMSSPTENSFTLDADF
Briefly: Inhibition of human recombinant RRM2.

SMILES strings stand for the structures.

The GI50 is the concentration that inhibits growth by half. Read a low GI50 as more potent growth inhibition. The molecule `COc1ccc(/C=N/Nc2nc(C)c(C(=O)NO)s2)cc1` yielded a GI50 in the experiment on HCT-116 of 32.8 µM. In the experiment on HCT-116, `Cc1nc(N/N=C/c2ccccc2O)sc1C(=O)NO` yielded a GI50 of 36.7 µM. On the same count and under the same terms, in the case of `Cc1nc(N/N=C/c2ccccc2)sc1C(=O)NO` it was 23.9 µM; in that of `Cc1nc(N/N=C/c2ccc([N+](=O)[O-])cc2)sc1C(=O)NO`, 40.7 µM; in that of `C/C(=N\Nc1nc(C)c(C(=O)NO)s1)c1ccc(Cl)cc1`, more than 50 µM. For `C/C(=N\Nc1nc(C)c(C(=O)NO)s1)c1ccccc1`, in the experiment with HCT-116, the GI50 was more than 50 µM. Still for that read-out and setting: then `COc1cccc(/C=N/Nc2nc(C)c(C(=O)NO)s2)c1`, with more than 50 µM. Same read-out and setting: in the case of `Cc1nc(N/N=C/c2ccc(N(C)C)cc2)sc1C(=O)NO` it was 20.8 µM; in that of `Cc1nc(N/N=C/c2ccc(Cl)cc2)sc1C(=O)NO`, 21.6 µM.

What is called IC50 is the concentration that gives 50% inhibition. Turning to `NC(=O)NO` [HYDROXYUREA], the IC50 in experiment [1] is 601 µM.

The record behind these values is ChEMBL document CHEMBL5550109, “Synergistic therapeutics: Co-targeting histone deacetylases and ribonucleotide reductase for enhanced cancer treatment” (Eur J Med Chem, 2024).
